Measured values: patent US20200131132A1, “FARNESOID X RECEPTOR AGONISTS AND USES THEREOF” (Metacrine, Inc., priority 2017, published 2020)

Target: T1, hFXR (Homo sapiens, UniProt Q96RI1)
T1 construct: expressed in transfected cells; host or cells: CV-1 cells
T1 sequence (Q96RI1 1-486): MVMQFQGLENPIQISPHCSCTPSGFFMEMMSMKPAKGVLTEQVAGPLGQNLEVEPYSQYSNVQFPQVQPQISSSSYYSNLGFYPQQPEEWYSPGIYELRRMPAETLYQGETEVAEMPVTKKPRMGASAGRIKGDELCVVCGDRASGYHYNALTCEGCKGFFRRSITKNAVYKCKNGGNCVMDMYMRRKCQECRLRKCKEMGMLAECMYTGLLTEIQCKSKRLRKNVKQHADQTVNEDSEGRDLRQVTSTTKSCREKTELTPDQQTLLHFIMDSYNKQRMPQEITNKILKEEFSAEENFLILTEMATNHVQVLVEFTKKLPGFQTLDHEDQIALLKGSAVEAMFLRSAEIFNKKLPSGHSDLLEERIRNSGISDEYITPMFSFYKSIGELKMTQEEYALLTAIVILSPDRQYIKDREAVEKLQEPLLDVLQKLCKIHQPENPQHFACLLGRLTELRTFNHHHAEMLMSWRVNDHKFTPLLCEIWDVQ
T1 sequence (P19793 1-462 partner): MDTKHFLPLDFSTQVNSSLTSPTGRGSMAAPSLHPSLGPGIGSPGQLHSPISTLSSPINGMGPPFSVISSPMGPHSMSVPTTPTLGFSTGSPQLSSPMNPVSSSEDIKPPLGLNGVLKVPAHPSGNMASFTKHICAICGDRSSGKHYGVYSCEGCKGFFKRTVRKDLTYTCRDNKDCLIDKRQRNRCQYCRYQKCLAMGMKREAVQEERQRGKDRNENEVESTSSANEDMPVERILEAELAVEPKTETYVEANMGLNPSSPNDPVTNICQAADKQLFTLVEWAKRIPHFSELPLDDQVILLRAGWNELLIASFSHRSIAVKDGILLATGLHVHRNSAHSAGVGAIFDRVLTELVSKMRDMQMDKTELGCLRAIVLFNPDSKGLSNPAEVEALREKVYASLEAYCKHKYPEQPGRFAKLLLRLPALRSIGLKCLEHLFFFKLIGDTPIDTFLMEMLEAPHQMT
Test: In Vitro FXR Assay (TK)
Assay type: cell-based
Settings: CV-1 cells transfected with hFXR, hRXR, TK-ECRE-luc and pCMX-YFP; compounds incubated 18 hrs; luminescence
Summary of the method: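 CV-1, transient co-transfection: hFXR + hRXR + TK-ECRE-luc + pCMX-YFP; charcoal-stripped serum. 18 h post-transfection, DMSO serial dilutions of cpd added; 18 h incubation; lysis, luminescence.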

| EC50 | SMILES |
| --- | --- |
| > 10000 nM | COc1ccc(-c2ccc(CN(C(=O)CC(C)(C)C)c3nccc4cc(OC5CN(C)C5)ccc34)cc2)cc1C [Compound 30, N-((4′-Methoxy-3′-methyl-[1,1′-biphenyl]-4-yl)methyl)-3,3-dimethyl-N-(6-((1-methylazetidin-3-yl)oxy)isoquinolin-1-yl)butanamide] |
| ≤ 1000 nM | COc1ccc(-c2ccc(CN(C(=O)CC(C)(C)C)c3nccc4cc(OC(C)CO)ccc34)cc2)cc1C (stereo not shown) [Compound 31, N-(6-((1-Hydroxypropan-2-yl)oxy)isoquinolin-1-yl)-N-((4′-methoxy-3′-methyl-[1,1′-biphenyl]-4-yl)methyl)-3,3-dimethylbutanamide] |
| ≤ 1000 nM | COc1ccc(-c2ccc(CN(C(=O)CC(C)(C)C)c3nccc4cc(OCCS(C)(=O)=O)ccc34)cc2)cc1C [Compound 32, N-((4′-Methoxy-3′-methyl-[1,1′-biphenyl]-4-yl)methyl)-3,3-dimethyl-N-(6-(2-(methylsulfonyl)ethoxy)isoquinolin-1-yl)butanamide] |
| ≤ 1000 nM | COc1ccc(-c2ccc(CN(C(=O)CC(C)(C)C)c3nccc4cc(OCC[S+](C)[O-])ccc34)cc2)cc1C (stereo not shown) [Compound 33, N-((4′-Methoxy-3′-methyl-[1,1′-biphenyl]-4-yl)methyl)-3,3-dimethyl-N-(6-(2-(methylsulfinyl)ethoxy)isoquinolin-1-yl)butanamide] |
